Results from US12247320B2, “Multivalent glycopeptides that tightly bind to carbohydrate-binding monoclonal antibody family PGT128” (BRANDEIS UNIVERSITY, priority 2018, dated 2025).

How the values were obtained:
PGT128 = test: Binding of radiolabeled, cyclized, glycosylated peptides to PGT128 (Protein G bead capture, scintillation counting); details: for Kd: after affinity purification with 100 nM PGT128
Experimental: Radioactive Peptides. For binding analysis, translation (50 μL) was carried out in the presence of PDF/MAP and ^3H-histidine for radiolabeling. The crude peptides were purified by Ni-NTA agarose or, if the sequence contained two cysteine residues, was cyclized while captured on the Ni-NTA resin. The peptide eluents were combined and dialyzed as follows. To the combined eluents was added a solution of Triton X-100 in water for a final concentration of 0.1%. Then, the peptides were dialyzed against 0.1% (v/v) Triton X-100 using a Slide-A-Lyzer™ MINI device (0.1 mL capacity, 3.5 kDa MWCO) (ThermoScientific) at room temperature overnight. The dialyzed peptides were retrieved from the devices, transferring to 0.5 mL centrifuge tubes. The peptide solutions were concentrated to dryness by speedvac for the click reaction.
Sequences were screened for their binding to PGT128 as follows. Each glycosylated peptide (20 fmol) was incubated with either 0 nM or 100 nM PGT128, diluted to 20 μL with 1× selection buffer, tumbling for 1 hour at room temperature. While tumbling, Dynabeads™ Protein G (Invitrogen) were equilibrated with 1× selection buffer as follows. Steps were carried out using a multi-channel pipettor where possible. For each sequence, 5 μL of Protein G bead suspension was transferred to a 0.2 mL PCR tube in a strip. Then, 40 μL of 1× selection buffer was added to the beads. The mixture was resuspended by gently vortexing, spun down briefly, and placed on a magnet for 1 minute. The supernatant was removed, and this wash was repeated two more times. The final supernatant was removed just prior to addition of the incubated peptide/antibody mixture. The mixture was allowed to tumble at room temperature for 30 minutes to capture antibodies and bound peptides. Then, the suspension was briefly spun down, placed on a magnet, and the supernatant was transferred to an individual 0.2 mL PCR tube. To wash the beads, 20 μL of 1× selection buffer was added, gently vortexed, spun down briefly, placed on a magnet for 1 minute, and the wash was transferred to the same PCR tube as the supernatant. This wash step was repeated twice more for a total of three washes, saved altogether with the supernatant as the “unbound” fraction. The beads were then resuspended in 40 μL of denaturing elute buffer. The suspension was heated at 95° C. for 5 minutes to denature antibodies, spun down briefly, placed on a magnet for 1 minute, and the eluent was transferred to an individual 0.2 mL PCR tube. The beads were washed with 40 μL of denaturing elute buffer, and the wash was placed into the same tube as the eluent. The combined eluent and wash represented the “bound” fraction. The beads were resuspended in 40 μL of denaturing elute buffer, vortexed, and directly placed into a vial with liquid scintillation cocktail for radioactivity measurements, though it was not included in calculations of fraction bound. Each of the tubes with the “unbound” and “bound” fractions were placed into vials for LSC. The tube in which the antibody and peptides were incubated were also measured by LSC, but not included in calculations of fraction bound.
Cyclized and glycosylated peptides 91-8 (SEQ ID NO:74) and 91-12 (SEQ ID NO:76) (Heavily Biased library) were subject to PGT128 affinity purification. The sequences (0.3 μmol) were each incubated with 100 nM PGT128, diluted to 40 μL with 1× selection buffer, tumbling for 1 hour at room temperature. The antibody/peptide complexes were captured on equilibrated Protein G (10 μL) and washed as described previously. The bound fraction was then eluted as follows. The beads were resuspended in 10 μL of 1× selection buffer and heated at 70° C. for 30 minutes. Then, the suspension was chilled on ice for 5 minutes, and tumbled at room temperature for 10 minutes. The eluent was separated, and the beads were washed with 10 μL of 1× selection buffer. The wash was combined with the eluent as the “bound” fraction. […]

[1] = Solubility seen during reduction and cyclization of the synthetic peptide; format: physicochemical; details: reduced peptide in 200 mM NH4HCO3 with 10 mM TCEP, not glycosylated
Experimental: Then, 9 mg of crude peptide was reduced and cyclized as follows. Each peptide (1 mM final concentration) was dissolved in 200 mM NH4HCO3 with 10 mM TCEP for a reaction volume of 1332 μL. The reactions were tumbled at room temperature for 50 minutes. At that time, the reactions were buffer-exchanged to remove excess TCEP. […] The pellet was washed six times with 1 mL portions of 200 mM NH4HCO3. Portions of the H-22 reaction were transferred to Centricon-500 spin columns (MWCO 2 kDa) with 300 μL of 200 mM NH4HCO3. The filters were spun down and washed six times with 300 μL of 200 mM NH4HCO3. The solutions were then diluted to 1322 μL with 200 mM NH4HCO3, 5.95 mL of water, and 5.68 mL of MeCN in a 15 mL conical tube. Then, 529 μL of a solution of 5 mM m-dibromoxylene in MeCN was added, for a final concentration of 0.2 mM of m-dibromoxylene and 0.1 mM peptide. The cyclization reactions were tumbled at room temperature and monitored by LC-MS. After 40 minutes, H22 was complete. At that time, 132 μL of 5 mM m-dibromoxylene in MeCN was added to the H-1 reaction to push it to completion (total reaction time: 140 minutes). The reactions were quenched by lowering the pH with formic acid. The solutions were concentrated under reduced pressure and lyophilized overnight.

[2] = before PGT128 affinity purification
[3] = following PGT128 affinity purification

Sequence | Kd (PGT128) [nM] | maximum fraction bound (PGT128; [2]) [%] | maximum fraction bound (PGT128; [3]) [%] | solubility [1]
MAHYSXNHXRHPLYPSVNHRXSYPRIGLLSRIGDIRSASCXLRCFRXRST [91-8cy] | 2.73 ± 0.36 | 69 | 85 | –
XYPNTLNNVYQKCNKYNVIGDIRXARCXHXEHFSSQDQPKSKHKRRYKGF [91-12cy] | 7.41 ± 1.29 | 54 | 74 | –
YTEKHNGIGDIRPAICXNSKNQNHRCNHYQIKLYIHXLXRLPHNYRNS [H-1, Top round 12 PGT128 cluster, Heavily Biased library; made by SPPS with C-terminal biotinyl-lysine] | – | – | – | poor solubility
